Results reported in patent publication USRE32310E, “Derivatives of A-21978C cyclic peptides” (Eli Lilly and Company, priority 1985, dated 1986).
In brackets after ≈: the same amount, converted by molar mass.

Experiments:
[1] = system: Micrococcus luteus ATCC 9341; test: Agar-plate disc-diffusion test; assay type: cell-based; details: 1 mg/ml, 7mm disc, 24-48 hours at 25-37° C.
[2] = system: Bacillus subtilis ATCC 6633; test: Agar-plate disc-diffusion test; details: 1 mg/ml, 7mm disc
Procedure: ^a Compounds were suspended in water at a concentration of 1 mg/ml; a
7mm disc was dipped into the suspension and then placed on the agar
surface; incubation 24-48 hours at 25-37° C.

[3] = system: Staphylococcus aureus ATCC 6738P; test: Agar-plate disc-diffusion test; assay type: cell-based; details: compound suspended in water at 1 mg/ml, 7mm disc, 24-48 hours at 25-37° C.
[4] = system: Staphylococcus epidermidis EPI2; test: Standard agar-dilution test (MIC); assay type: cell-based
Procedure: (§1) The results of the antibacterial testing of a representative compound of formula 1, using the standard agar-dilution test, are summarized in Table II. In Table II activity is measured by the minimal inhibitory concentration (MIC), i.e. the lowest concentration of compound which inhibits the growth of the microorganism.

[5] = system: Staphylococcus aureus X400; test: Standard agar-dilution test (MIC); assay type: cell-based; details: Staphylococcus aureus X400, methicillin-resistant strain
Procedure: as §1

Streptococcus Group 9960 = test: Standard agar-dilution test (MIC); assay type: cell-based
Procedure: as §1

[6] = system: Streptococcus pyogenes C203; test: Standard agar-dilution test (MIC); assay type: cell-based
Procedure: as §1

[7] = system: Streptococcus Group D X66; test: Standard agar-dilution test (MIC); assay type: cell-based
Procedure: as §1

[8] = system: Staphylococcus epidermidis EPI1; test: Standard agar-dilution test (MIC); assay type: cell-based
Procedure: as §1

[9] = system: Staphylococcus aureus S13E; test: Standard agar-dilution test (MIC); assay type: cell-based
Procedure: as §1

[10] = system: Staphylococcus aureus V41; test: Standard agar-dilution test (MIC); assay type: cell-based; details: Staphylococcus aureus V41, penicillin-resistant strain
Procedure: as §1

[11] = system: Staphylococcus aureus X1.1; test: Standard agar-dilution test (MIC); assay type: cell-based
Procedure: as §1

Staphylococcus aureus = test: In vivo activity against experimental bacterial infection; details: mice, subcutaneous, two doses
Procedure: (§2) The representative A-21978C cyclic peptide of formula 1 has shown in vivo antimicrobial activity against experimental bacterial infections. When two doses of test compound were administered to mice in illustrative infections, the activity observed was measured as an ED50 value [effective dose in mg/kg to protect fifty percent of the test animals: See Warren Wick, et al., J. Bacteriol. 81, 233-235 (1961)].

Streptococcus pyogenes = test: as above; details: mice, two doses
Procedure: as §2

[12] = B. subtilis ATCC 6633 grown on minimal nutrient agar
[13] = Bacillus subtilis ATCC 6633, 24-48 hours at 25-37° C.

Row | Compound | Size of Zone of Inhibition [1] [mm] | Size of Zone of Inhibition [2, 12] [mm] | Size of Zone of Inhibition [2, 13] [mm] | Size of Zone of Inhibition [3] [mm] | MIC Values [4] [mg/L] | MIC Values [5] [mg/L] | MIC Values (Streptococcus Group 9960) [mg/L] | MIC Values [6] [mg/L] | MIC Values [7] [mg/L] | MIC Values [8] [mg/L] | MIC Values [9] [mg/L] | MIC Values [10] [mg/L] | MIC Values [11] [mg/L] | ED50 Values (Staphylococcus aureus) [mg/kg × 2] | ED50 Values (Streptococcus pyogenes; oral) [mg/kg × 2] | ED50 Values (Streptococcus pyogenes; subcutaneous) [mg/kg × 2]
1 | NTrp -p-(n-Dodecyloxy)benzoyl-NOrn -t-BOC-A-21978C Nucleus [p-(n-dodecyloxy)benzoyl t-BOC] | 15 | 22 | 10 | 20 | – | – | – | – | – | – | – | – | – | – | – | –
2 | CCCCCCCCCCCCOc1ccc(C(=O)N[C@@H](Cc2c[nH]c3ccccc23)C(=O)N[C@H](CC(N)=O)C(=O)N[C@@H](CC(=O)O)C(=O)N[C@@H]2C(=O)NCC(=O)N[C@@H](CCCN)C(=O)N[C@@H](CC(=O)O)C(=O)N[C@H](C)C(=O)N[C@@H](CC(=O)O)C(=O)NCC(=O)N[C@H](CO)C(=O)N[C@@H]([C@H](C)CC(=O)O)C(=O)N[C@@H](CC(=O)c3ccccc3N)C(=O)O[C@@H]2C)cc1 [NTrp --p-(n-Dodecyloxy)benzoyl-A-21978C, NTrp -p-(n-dodecyloxy)benzoyl-A-21978C Nucleus] | 18 | 20 | 13 | 20 | 2 (≈ 1.14 µM) | 2 (≈ 1.14 µM) | 1 (≈ 0.57 µM) | 0.25 (≈ 0.142 µM) | 2 (≈ 1.14 µM) | 4 (≈ 2.28 µM) | 1 (≈ 0.57 µM) | 1 (≈ 0.57 µM) | 1 (≈ 0.57 µM) | 3.35 | > 200 | 0.31
